According to patent US9969698B2, “Quinoxalinyl-piperazinamide methods of use” (REXAHN PHARMACEUTICALS, INC., priority 2015, dated 2018):
“And” between values parts separate entries of the source, which are not always exact repeats. Identical values can stand only once. Like-named read-outs stand apart in the source and are kept apart here.

Assay: Human pharmacokinetics, dose-ranging study
Assay type: in vivo
Experimental: In a dose-ranging study, the pharmacokinetics (PK), safety and tolerability of RX-5902 at various oral doses were evaluated. Subjects with advanced or metastatic solid tumors were administered capsules containing RX-5902 at daily doses of 25-775 mg once weekly, 250-300 mg three times a week, 150-300 mg five times a week, or 300-350 mg seven times a week of RX-5902 for up to 6 dosing cycles. Each cycle consisting of 1-5 doses of RX-5902 per week for 3 weeks followed by 1 week of rest, or 5-7 doses of RX-5902 per week for 4 weeks without any rest per 4-week cycle. All but one subject had fasted from food for at least 8 hours before administration. One subject received 300 mg RX-5902 in fed state. Plasma concentrations were measured on Days 1 and 15, for 48 hrs, using a validated LC-MS/MS assay, and noncompartmental pharmacokinetic parameters were calculated using Phoenix WinNonlin, Version 6.4.
Preliminary PK data after a single administration is presented in FIG. 1 (for Subjects #1-11) and Table 3.

[1] = oral capsule, 300 mg, 1 per week, Day 1, fasted
[2] = oral capsule, 300 mg, 5 per week, Day 1, fasted
[3] = oral capsule, 775 mg, 1 per week, Day 1, fasted

Structure (SMILES): COc1cc(OC)cc(N2CCN(C(=O)Nc3nc4cc(F)ccc4nc3OC)CC2)c1 [RX-5902, 4-(3,5-dimethoxyphenyl)-N-(7-fluoro-3-methoxyquinoxalin-2-yl)piperazine-1-carboxamide]
- half-life (human, plasma, po, 300 mg, oral capsule, 300 mg, 1 per week, Day 1, fasted, read-out: T1/2 (converted)): 14.6 h
- AUC(0-t) (human, plasma, po, 300 mg, oral capsule, 300 mg, 1 per week, Day 1, fed, read-out: AUC0-24): 8.62 µg·h/mL
- AUC(0-t) (human, plasma, po, 300 mg, oral capsule, 300 mg, 1 per week, Day 1, fed, read-out: AUC0-48): 10.7 µg·h/mL
- Cmax (human, plasma, po, 300 mg, oral capsule, 300 mg, 1 per week, Day 1, fed, read-out: Cmax): 0.779 µg/mL
- half-life (human, plasma, po, 300 mg, oral capsule, 300 mg, 1 per week, Day 1, fed, read-out: T1/2 (converted)): 11.9 h
- Tmax (human, plasma, po, 300 mg, oral capsule, 300 mg, 1 per week, Day 1, fed, read-out: Tmax): 4 h
- AUC(0-t) (human, plasma, po, 300 mg, oral capsule, 300 mg, 3 per week, Day 1, fasted, read-out: AUC0-24): 3.85 µg·h/mL
- AUC(0-t) (human, plasma, po, 300 mg, oral capsule, 300 mg, 3 per week, Day 1, fasted, read-out: AUC0-48): 4.55 µg·h/mL
- Cmax (human, plasma, po, 300 mg, oral capsule, 300 mg, 3 per week, Day 1, fasted, read-out: Cmax): 0.288 µg/mL
- half-life (human, plasma, po, 300 mg, oral capsule, 300 mg, 3 per week, Day 1, fasted, read-out: T1/2 (converted)): 10.3 h
- Tmax (human, plasma, po, 300 mg, oral capsule, 300 mg, 3 per week, Day 1, fasted, read-out: Tmax): 6 h
- AUC(0-t) (human, plasma, po, 300 mg, oral capsule, 300 mg, 3 per week, Day 15, fasted, read-out: AUC0-24): 3.05 µg·h/mL
- AUC(0-t) (human, plasma, po, 300 mg, oral capsule, 300 mg, 3 per week, Day 15, fasted, read-out: AUC0-48): 4.14 µg·h/mL
- Cmax (human, plasma, po, 300 mg, oral capsule, 300 mg, 3 per week, Day 15, fasted, read-out: Cmax): 0.301 µg/mL
- Tmax (human, plasma, po, 300 mg, oral capsule, 300 mg, 3 per week, Day 15, fasted, read-out: Tmax): 2 h
- AUC(0-t) (human, plasma, po, 300 mg, oral capsule, 300 mg, 5 per week, Day 1, fasted, read-out: AUC0-24): 3.8 µg·h/mL
- Cmax (human, plasma, po, 300 mg, oral capsule, 300 mg, 5 per week, Day 1, fasted, read-out: Cmax): 0.317 µg/mL
- AUC(0-t) (human, plasma, po, 300 mg, oral capsule, 300 mg, 5 per week, Day 15, fasted, read-out: AUC0-24): 3.84 µg·h/mL
- Tmax (human, plasma, po, 300 mg, oral capsule, 300 mg, 5 per week, Day 15, fasted, read-out: Tmax): 1.5 h
- AUC(0-t) (human, plasma, po, 300 mg, oral capsule, 300 mg, 7 per week, Day 1, fasted, read-out: AUC0-24): 2.99 µg·h/mL
- AUC(0-t) (human, plasma, po, 300 mg, oral capsule, 300 mg, 7 per week, Day 1, fasted, read-out: AUC0-48): 3.18 µg·h/mL
- Cmax (human, plasma, po, 300 mg, oral capsule, 300 mg, 7 per week, Day 15, fasted, read-out: Cmax): 1.25 µg/mL
- Tmax (human, plasma, po, 300 mg, oral capsule, 300 mg, 7 per week, Day 15, fasted, read-out: Tmax): 6 h
- AUC(0-t) (human, plasma, po, 350 mg, oral capsule, 350 mg, 7 per week, Day 1, fasted, read-out: AUC0-24): 4.82 µg·h/mL
- AUC(0-t) (human, plasma, po, 350 mg, oral capsule, 350 mg, 7 per week, Day 1, fasted, read-out: AUC0-48): 4.96 µg·h/mL
- Cmax (human, plasma, po, 350 mg, oral capsule, 350 mg, 7 per week, Day 1, fasted, read-out: Cmax): 0.75 µg/mL
- Tmax (human, plasma, po, 350 mg, oral capsule, 350 mg, 7 per week, Day 1, fasted, read-out: Tmax): 1.5 h
- AUC(0-t) (human, plasma, po, 425 mg, oral capsule, 425 mg, 1 per week, Day 1, fasted, read-out: AUC0-24): 9.32 µg·h/mL
- AUC(0-t) (human, plasma, po, 425 mg, oral capsule, 425 mg, 1 per week, Day 1, fasted, read-out: AUC0-48): 14.7 µg·h/mL
- Cmax (human, plasma, po, 425 mg, oral capsule, 425 mg, 1 per week, Day 1, fasted, read-out: Cmax): 0.66 µg/mL
- Tmax (human, plasma, po, 425 mg, oral capsule, 425 mg, 1 per week, Day 1, fasted, read-out: Tmax): 2 h
- AUC(0-t) (human, plasma, po, 575 mg, oral capsule, 575 mg, 1 per week, Day 1, fasted, read-out: AUC0-24): 6.83 µg·h/mL
- AUC(0-t) (human, plasma, po, 575 mg, oral capsule, 575 mg, 1 per week, Day 1, fasted, read-out: AUC0-48): 10.1 µg·h/mL
- Cmax (human, plasma, po, 575 mg, oral capsule, 575 mg, 1 per week, Day 1, fasted, read-out: Cmax): 0.707 µg/mL
- Tmax (human, plasma, po, 575 mg, oral capsule, 575 mg, 1 per week, Day 1, fasted, read-out: Tmax): 4 h
- AUC(0-t) (human, plasma, po, 775 mg, oral capsule, 775 mg, 1 per week, Day 1, fasted, read-out: AUC0-24): 3.54 µg·h/mL
- AUC(0-t) (human, plasma, po, 775 mg, oral capsule, 775 mg, 1 per week, Day 1, fasted, read-out: AUC0-48): 5.01 µg·h/mL
- Cmax (human, plasma, po, 775 mg, oral capsule, 775 mg, 1 per week, Day 1, fasted, read-out: Cmax): 0.487 µg/mL
- half-life (human, plasma, po, 775 mg, oral capsule, 775 mg, 1 per week, Day 1, fasted, read-out: T1/2 (converted)): 9.7 h
- Tmax (human, plasma, po, oral capsules, all subjects, after dosing, read-out: Tmax, observed range): 1 to 6 h
- half-life (human, plasma, po, oral capsules, all subjects, read-out: Apparent terminal T1/2, mean value (converted)): 13 h
- half-life (human, plasma, po, oral capsules, all subjects, read-out: Apparent terminal T1/2, range): 5.8 to 27.6 h
- AUC0-24 [1]: 4.17 µg·h/mL
- AUC0-48 [1]: 5.552 µg·h/mL
- Cmax [1]: 0.452 µg/mL
- T1/2 [1]: 15.6 h
- AUC0-24 [2]: 4.607 µg·h/mL and 3.855 µg·h/mL
- Cmax [2]: 0.549 µg/mL and 0.419 µg/mL and 0.624 µg/mL
- AUC0-24 (oral capsule, 300 mg, 5 per week, Day 15, fasted): 4.878 µg·h/mL
- AUC0-24 [3]: 6.925 µg·h/mL
- AUC0-48 [3]: 8.126 µg·h/mL
- Cmax [3]: 0.654 µg/mL
- apparent, short lag time (oral capsules, sometimes displayed): 0.25 h
- share of AUC0-t (0-48 hours) observed by 24 hours (oral capsules, usually): over 75%
